Test results published in US10370380B2, “Octahydropyrrolo[3,4-c]pyrrole derivatives and uses thereof” (Sunshine Lake Pharma Co., Ltd., priority 2015, dated 2019).

Columns and labels:
[1] = Pharmacokinetic evaluation after intravenous or gavage administration to dogs; format: in vivo, Beagle dogs; details: dogs; for AUC(0-inf): read-out: AUCINF; for AUC(0-t): read-out: AUClast; for Cmax: read-out: Cmax; for MRT inf: read-out: MRTINF; for half-life: read-out: T1/2 (converted)
Procedure: (§1) The compounds disclosed herein were administered in form of a saline solution containing 5% DMSO, 5% Kolliphor HS 15, 2% (2% HCl) and 88% Saline, or a solution containing 10% DMSO, 10% Kolliphor HS 15 and 80% physiological saline to the subject animals. For intravenous administration, the animals were administered with a dose of 1 mg/kg or 2 mg/kg, and vein blood samples (0.3 mL) were collected at the time points of 0.083, 0.25, 0.5, 1.0, 2.0, 4.0, 6.0, 8.0 and 24 h after drug administration; plasma samples were collected by centrifugation of the vein blood samples at 3000 rpm or 4000 rpm for 10 minutes, and stored at −20° C. or −70° C. For gavage administration, the animals were administered with a dose of 2.5 mg/kg or 5 mg/kg, and vein blood samples (0.3 mL) were collected at the time points of 0.25, 0.5, 1.0, 2.0, 4.0, 6.0, 8.0 and 24 h after drug administration; plasma samples were collected by centrifugation at 3000 rpm or 4000 rpm for 10 minutes, and stored at −20° C. or −70° C. The positive control is suvorexant.
(§2) The above plasma samples were analyzed by the LC-MS/MS system.

[2] = Stability in human liver microsome; format: in vitro ADME; details: microsomes, pH 4, human liver microsome 0.5 mg/mL, 1 μM, 37° C., NADPH
Procedure: A mixture of the compound of the invention and human liver microsome in 0.1 M potassium phosphate buffer (containing 1.0 mM EDTA, pH=4) was incubated at 37° C., the sample concentrations at different incubation times were measured, and then the half life of the compound was calculated by plotting “the relative amount of the compound” against “incubation time” by using software GraphPad Prism 5.01, and intrinsic clearance was calculated. The experiment system shown as table 5:
The sample was analyzed by LC/MS/MS (ESI […] source and waters xbridge C18 EB-A-1420 chromatographic column were adopted), the mobile phases were an aqueous solution with 2 mM ammonium formate and 0.1% formic acid (mobile phase A) and an methanol solution with 2 mM ammonium formate and 0.1% formic acid (mobile phase B), the flow rate was 0.4 mL/min; the column temperature was 40° C. The ratio of the sample peak area to the internal standard peak area was obtained through LC/MS/MS analysis, the content of the compound at 0 time point was as 100%, the relative content of the compound at each time point was calculated. The half life of the compound was calculated by plotting “the relative amount of the compound” against “incubation time”, and intrinsic clearance was calculated.
The positive control is suvorexant.

hERG channel = biological target: T1, hERG channel (Homo sapiens, UniProt Q12809); assay: hERG fluorescence polarization assay (potential of inducing QT interval prolongation); format: binding
T1 construct: purchased Invitrogen
Procedure: The potential of the compound disclosed herein inducing QT interval prolongation was evaluated by detecting if the compound would block the hERG channel. The specific test method is as follows:
Precisely weighed compound disclosed herein was dissolved in DMSO to formulate a solution at the highest concentration of 10.0 mM, and then the solution was diluted to a initial concentration of 120.0 μM with hERG FP Assay Buffer (Invitrogen); the hERG Tracer Red stock solution (Invitrogen) and the positive control E-4031 stock solution (Invitrogen) were respectively diluted to initial concentrations of 4.0 nM and 120.0 μM with hERG FP Assay Buffer (Invitrogen). […]
The above-mentioned solution of the compound disclosed herein and E-4031 at the initial concentration of 120 μM were respectively diluted with hERG FP Assay Buffer 5-fold in series to provide 8 concentration of 120.0 μM, 24.0 μM, 4.8 μM, 960.0 nM, 192.0 nM, 38.4 nM, 7.7 nM and 1.5 nM. […] After that, the 384-well plate was put into an oscillator (PHMP-4, Grant-sio), in 25° C., 250 rpm, to incubate for 4 hours, and the fluorescence polarization values were measured by multi-function microplate reader (PHERAStarFS, BMG LABTECH) and corrected with the minimum and maximum fluorescence polarization values of E-4031, and the IC50 of the compound disclosed herein was calculated by GraphPad software. […]

[3] = Pharmacokinetic evaluation after intravenous or gavage administration to rats; format: in vivo, SD rats; details: rats; for AUC(0-inf): read-out: AUCINF; for AUC(0-t): read-out: AUClast; for Cmax: read-out: Cmax; for MRT inf: read-out: MRTINF; for half-life: read-out: T1/2 (converted)
Procedure: as §1, §2

[4] = beagle, dog, in vivo, iv, 1 mg/kg
[5] = beagle, dog, in vivo, po, 5 mg/kg

T1 sequence (Q12809 whole entry): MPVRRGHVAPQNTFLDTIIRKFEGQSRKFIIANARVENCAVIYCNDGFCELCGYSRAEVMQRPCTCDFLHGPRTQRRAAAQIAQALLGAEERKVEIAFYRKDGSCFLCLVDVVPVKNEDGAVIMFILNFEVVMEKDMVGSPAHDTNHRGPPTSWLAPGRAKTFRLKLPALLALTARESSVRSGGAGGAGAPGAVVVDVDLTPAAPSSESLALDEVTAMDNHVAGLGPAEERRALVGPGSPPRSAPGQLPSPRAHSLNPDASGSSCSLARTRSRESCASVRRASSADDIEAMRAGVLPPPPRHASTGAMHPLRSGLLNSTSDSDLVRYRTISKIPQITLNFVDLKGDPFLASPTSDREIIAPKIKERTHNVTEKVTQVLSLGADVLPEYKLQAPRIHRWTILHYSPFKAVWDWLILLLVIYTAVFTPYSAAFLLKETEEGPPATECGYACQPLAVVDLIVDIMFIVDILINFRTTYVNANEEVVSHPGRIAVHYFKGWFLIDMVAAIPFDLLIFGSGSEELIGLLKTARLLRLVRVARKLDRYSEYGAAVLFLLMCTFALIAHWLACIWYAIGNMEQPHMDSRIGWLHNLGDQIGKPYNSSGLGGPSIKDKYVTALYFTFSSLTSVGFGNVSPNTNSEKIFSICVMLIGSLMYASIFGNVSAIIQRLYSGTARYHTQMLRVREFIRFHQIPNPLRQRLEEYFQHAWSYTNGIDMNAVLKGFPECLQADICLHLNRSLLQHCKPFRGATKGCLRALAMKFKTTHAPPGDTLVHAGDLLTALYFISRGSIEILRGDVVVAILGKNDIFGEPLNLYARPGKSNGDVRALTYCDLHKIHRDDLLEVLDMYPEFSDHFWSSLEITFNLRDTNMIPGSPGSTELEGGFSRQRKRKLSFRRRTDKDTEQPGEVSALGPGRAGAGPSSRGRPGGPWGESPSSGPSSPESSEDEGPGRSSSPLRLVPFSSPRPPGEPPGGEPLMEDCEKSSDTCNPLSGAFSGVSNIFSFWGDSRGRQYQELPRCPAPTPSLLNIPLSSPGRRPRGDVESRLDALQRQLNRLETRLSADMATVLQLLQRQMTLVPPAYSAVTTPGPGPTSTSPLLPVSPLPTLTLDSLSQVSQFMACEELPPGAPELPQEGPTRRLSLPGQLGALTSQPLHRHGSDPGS

## Cc1ccc(-n2nccn2)c(C(=O)N2CCN(c3nc4cc(Cl)ccc4o3)CC[C@H]2C)c1 [suvorexant, reference compound]
[1]; [4]
  AUC(0-inf): 5960 ng·h/mL
  AUC(0-t): 5750 ng·h/mL
  Cmax: 2100 ng/mL
  MRT inf: 5.39 h
  half-life: 5.79 h
[1]; beagle, dog, in vivo, iv, 1 mg/kg, read-out: Cl
  clearance: 2.82 mL/min/kg
[1]; beagle, dog, in vivo, iv, 1 mg/kg, read-out: Vss
  Vd: 0.919 L/kg
[1]; [5]
  AUC(0-inf): 14300 ng·h/mL
  AUC(0-t): 13600 ng·h/mL
  Cmax: 1640 ng/mL
  MRT inf: 7.2 h
  half-life: 5.71 h
[1]; po, 5 mg/kg
  F: 48%
[2]; read-out: Half life
  half-life at 1 μM: 9.85 min
[2]; read-out: intrinsic clearance
  CLint scaled at 1 μM: 176 mL/min/kg
hERG channel
  IC50: 1790 nM
[3]; SD, rat, in vivo, iv, 2 mg/kg
  AUC(0-inf): 655 ng·h/mL
  AUC(0-t): 655 ng·h/mL
  Cmax: 784 ng/mL
  MRT inf: 0.708 h
  half-life: 0.569 h
[3]; SD, rat, in vivo, iv, 2 mg/kg, read-out: Cl
  clearance: 51.2 mL/min/kg
[3]; SD, rat, in vivo, iv, 2 mg/kg, read-out: Vss
  Vd: 2.17 L/kg
[3]; SD, rat, in vivo, po, 5 mg/kg
  AUC(0-inf): 530 ng·h/mL
  AUC(0-t): 528 ng·h/mL
  Cmax: 249 ng/mL
  MRT inf: 1.95 h
  half-life: 0.99 h
[3]; po, 5 mg/kg
  F: 32.4%
